The text below walks through data of patent publication US20090220528A1, “Stimulation of Toll-Like Receptors on T Cells” (THE TRUSTEES OF THE UNIVERISTY OF PENNSYLVANIA CNETER FOR …, priority 2005, published 2009).

Assay [1] concerns activated CD4+ T cells. The experiment in a line: NF-κB and MAP kinase signaling analysis (phospho-specific Western blot). The format is cell-based, mouse. As to conditions: anti-CD3/anti-CD28 activated BALB/c CD4+ T cells (FIG. 2). The procedure: BALB/c CD44^lowCD25^−CD4^+ T cells were activated with plate-bound 1.0 μg/ml anti-CD3 and 1.0 μg/ml anti-CD28 monoclonal antibodies for 16 hours, washed, and rested for 8 hours at 37° C. Activated (1.5×10^6) CD4^+ T cells were then treated with TLR ligands for the indicated times, lysed in 1×SDS loading buffer (Bio-Rad Life Sciences), resolved on a 12% bis-Tris SDS-PAGE gel (Life Technologies), transferred to nitrocellulose filters (Life Technologies), and either probed with rabbit anti-mouse phospho-specific Abs for p-IκBα, p-p38, p-extracellular signal-regulated kinase (ERK) 1/2, or p-C-Jun N-terminal kinase (JNK)/stress-activated protein kinase (SAPK). To assess total amounts of signaling molecules, filters were also probed with either rabbit anti-mouse IκBα, p-38, ERK-1/2, or JNK/SAPK antibodies. Detection was conducted with HRP-conjugated goat ant-rabbit antibodies, ECL reagent (Amersham), and X-OMAT Film (Kodak, Rochester, N.Y.). All antibodies were purchased from Cell Signal Technologies (Beverly, Mass.).
TLR ligands induce the activation of nuclear factor NF-κB and MAP kinases in APCs (Akira, 2003, J. Biol. Chem. 278:38105; Martin et al., 2002 Biochem. Biophys. Acta. 1592:265). The next set of experiments were designed to assess whether TLR ligands could also induce NF-κB and MAP kinase activity in activated CD4^+ T cells (FIG. 2). […]

Assay [2] has as its system activated CD4+ T cells. The experiment in a line: Absolute live CD4+ T cell counts by FACS. The class given is cell-based, mouse. As to conditions: up to 72 hours following activation with plate-bound anti-CD3 plus anti-CD28; relative to untreated cultures (FIG. 3C). The method, then: (§1) Following activation, purified CD4^+ T cells were washed twice in PBS and replated in culture medium at 10^6/ml. Cultures were left untreated or treated with either TLR ligands and/or inhibitors for indicated times and concentrations. Following incubation, CD4^+ T cells were washed twice in PBS/2% FBS and stained with CD4-allophycocyanin monoclonal antibody and 7-aminoactinomycin D (7-AAD; BD PharMingen) or annexin (BD PharMingen) and survival was assessed by exclusion of either of these two stains. For absolute live cell counts 50,000 CD45.1^+ splenocytes labeled with anti-CD45.1-PE monoclonal antibody (A20; BD PharMingen) were also added to stained CD4^+ T cell sample FACS tubes just before FACS analysis. Live CD4^+ T cell counts were calculated by taking the ratio of the number of CD4^+CD45.1^−7-ADD^− events collected to the number CD45.1^+ events collected and multiplying by 50,000. Proliferation was measured by CFSE dye dilution as previously described (Wells et al., 1997 J. Clin. Invest. 100:3173).
Since percentage survival measurements may not be reflective of viable CD4^+ T cell numbers in vitro, absolute live cell number counts were quantified for periods up to 72 hours following activation of FACS sorted CD4^+ T cells with plate-bound anti-CD3 plus anti-CD28 monoclonal antibodies (FIGS. 3C).
A general note: A flow cytometer gives signals particle by particle.

Assay [3] relates to activated DO11.10 CD4+ T cells. The experiment in a line: Proliferation by CFSE dye dilution. The class given is cell-based, mouse. Conditions: 72 hours following activation; relative to untreated activated controls (FIG. 3D). The procedure: as §1, with “For absolute live cell counts 50,000 CD45.1^+ splenocytes labeled with anti-CD45.1-PE monoclonal antibody (A20; BD PharMingen) were also added to stained CD4^+ T cell sample FACS tubes just before FACS analysis.” left out
Without wishing to be bound by any particular theory, the increases in live cells numbers observed could be explained by TLR ligand-mediated increases in CD4^+ T cell proliferation. […] To address this issue, CFSE-labeled DO11.10 CD4^+ T cells were first activated by pOVA-pulsed APCs for 16 hours, purified by magnetic beads, and then treated with TLR ligands and assessed for proliferation 72 hours following activation (FIG. 3D).

Assay [4] deals with activated DO11.10 CD4+ T cells. The assay can be described thus: Adoptive transfer and ex vivo proliferation analysis. The format is in vivo, mouse. The method, then:
Five million purified DO11.10 CD4^+ T cells were activated by pOVA-pulsed APCs (1 μg/ml), purified with magnetic beads, treated with poly(I:C) (90 μg/ml), CpG DNA (30 μM), LPS (100 ng/ml), or left untreated for 16 hours, washed in PBS twice, and then adoptively transferred into BALB/c hosts. At day 30, spleen and peripheral lymph nodes were harvested and stained with anti-CD4 monoclonal antibody and the DO11.10 clonotypic monoclonal antibody KJI-26. Survival of activated DO11.10 CD4^+ T cells in each host was determined by FACS analysis and is expressed as a percent with respect to the total number of CD4^+ T cells found in either the host spleen or lymph nodes along with a mean (thick line) for each treatment group. […] [^3H]Thymidine was added to cultures for an additional 8 hour and read on a beta scintillation counter and is expressed as a mean for each treatment group ±SEM.
To address this question, DO11.10 CD4^+ T cells were first activated with pOVA-pulsed APCs, purified by magnetic beads, treated with TLR ligands for 16 hours, washed, and then adoptively transferred into congenic BALB/c hosts. Survival and ex vivo proliferative responses were assessed 30 days later (FIGS. 5A and 5B). […]

Regarding poly(I:C), in the assay with activated CD4+ T cells [1], the “NF-κB activity (phosphorylation of IκBα)” value is “induce rapid NF-κB activity”; the “phosphorylation of p38 MAPK, ERK 1/2 and JNK/SAPK” value is listed as “able to effect phosphorylation”. The “live CD4+ T cell numbers” value with activated CD4+ T cells [2] is recorded as “concordant increases”. Besides, the “proliferation of activated CD4+ T cells” value in assay [3] is “did not enhance proliferation”. Moreover, in assay [4] (day 30 after adoptive transfer into BALB/c hosts, cells treated 16 hours before transfer, vs LPS-treated or untreated cells (FIG. 5A)), the “increase in percentage of recovered DO11.10 CD4+ T cells in host spleen” value is roughly 2 fold. The “increase in proliferative response to pOVA of splenic CD4+ T cells” value in assay [4] (ex vivo, day 30, vs hosts that received LPS-treated or untreated cells (FIG. 5B)) worked out at 2 fold.
